Results as given in patent publication US9943529B2, “Methods for reducing cellular proliferation and treating certain diseases” (BRIGHAM YOUNG UNIVERSITY, priority 2013, dated 2018).

Key:
Conditions in all cases: 10 μM, 48 hours
IGROV1 = test system: IGROV1
A498 = assay: NCI screen antiproliferative activity, sulforhodamine B, Renal Cancer panel; type: cell-based, human
Description: (§1) The antiproliferative activity of compounds were determined in the National Cancer Institute (NCI) screen (Drug. Dev. Res. 1995, 34, 91-109; J. Natl. Cancer Inst. 1990, 82, 1107-1112; Drug Dev. Res. 1995, 34, 91-109). For certain compounds, cells of approximately 60 different human cancer cell lines were incubated for 48 hours with five 10-fold dilutions of the tested compounds starting from 100 μM and then treated with sulforhodamine B dye. For other compounds, cells of approximately 60 different human cancer cell lines were incubated for 48 hours with a concentration of 10 μM test compound. The ratios of recorded optical densities relative to that of the control were plotted as a function of the common logarithm of the tested compound concentrations or growth percent (for single concentration tests). The interpolation between the points located above and below the 50% percentage growth provided 50% growth inhibition (GI50) values. Total growth inhibition (TGI) and 50% lethal concentrations (LC50) were also calculated using reported methods. A “-” means not tested and/or not-determined.

KM12 = assay: NCI screen antiproliferative activity, sulforhodamine B, Colon Cancer panel; type: cell-based, human
SK-MEL-28 = test system: SK-MEL-28
SK-OV-3 = test system: SK-OV-3
786-0 = test system: 786-0
SF-539 = test system: SF-539
HS 578T = assay: NCI screen antiproliferative activity, sulforhodamine B, Breast Cancer panel; type: cell-based, human
NCI-H23 = test system: NCI-H23
CCRF-CEM = assay: NCI screen antiproliferative activity, sulforhodamine B, Leukemia panel; type: cell-based, human
Description: as §1

HL-60(TB) = assay: as above; type: cell-based, human
Description: as §1

HCC-2998 = test system: HCC-2998
ACHN = test system: ACHN
OVCAR-8 = test system: OVCAR-8
OVCAR-3 = test system: OVCAR-3
HOP-92 = test system: HOP-92
TK-10 = test system: TK-10
MALME-3M = assay: NCI screen antiproliferative activity, sulforhodamine B, Melanoma panel; type: cell-based, human
UACC-62 = test system: UACC-62
NCI-H460 = test system: NCI-H460
UO-31 = test system: UO-31
MCF7 = test system: MCF7
SNB-19 = test system: SNB-19
LOX IMVI = assay: NCI screen antiproliferative activity, sulforhodamine B, Melanoma panel; type: cell-based, human
MDA-MB-435 = test system: MDA-MB-435
SW-620 = assay: NCI screen antiproliferative activity, sulforhodamine B, Colon Cancer panel; type: cell-based, human
M14 = test system: M14
SR = assay: NCI screen antiproliferative activity, sulforhodamine B, Leukemia panel; type: cell-based, human
A549/ATCC = test system: A549/ATCC
NCI-H522 = test system: NCI-H522
K-562 = assay: NCI screen antiproliferative activity, sulforhodamine B, Leukemia panel; type: cell-based, human
MDA-MB-231/ATCC = test system: MDA-MB-231/ATCC
MDA-MB-468 = assay: NCI screen antiproliferative activity, sulforhodamine B, Breast Cancer panel; type: cell-based, human
Description: as §1

OVCAR-4 = test system: OVCAR-4
RPMI-8226 = assay: NCI screen antiproliferative activity, sulforhodamine B, Leukemia panel; type: cell-based, human
NCI/ADR-RES = assay: NCI screen antiproliferative activity, sulforhodamine B, Ovarian Cancer panel; type: cell-based, human
Description: as §1

NCI-H226 = test system: NCI-H226
HCT-116 = test system: HCT-116
HT29 = test system: HT29
SN12C = test system: SN12C
COLO 205 = assay: NCI screen antiproliferative activity, sulforhodamine B, Colon Cancer panel; type: cell-based, human
HOP-62 = test system: HOP-62
SK-MEL-5 = assay: NCI screen antiproliferative activity, sulforhodamine B, Melanoma panel; type: cell-based, human
BT-549 = test system: BT-549
CAKI-1 = test system: CAKI-1
DU-145 = test system: DU-145
RXF 393 = test system: RXF 393
SF-268 = test system: SF-268
SNB-75 = test system: SNB-75
NCI-H322M = test system: NCI-H322M
PC-3 = test system: PC-3
MOLT-4 = assay: NCI screen antiproliferative activity, sulforhodamine B, Leukemia panel; type: cell-based, human
OVCAR-5 = test system: OVCAR-5
T-47D = test system: T-47D
HCT-15 = test system: HCT-15

`CCCCCCCCCCCCCCCCNCCCC(C)C1CCC2C3C(OCCCN)CC4CC(OCCCN)CCC4(C)C3CC(OCCCN)C12C.Cl.Cl.Cl.Cl` (stereo not shown) [CSA-92] was tested, and the “Growth Percent” value (IGROV1) was −41.76%, the “Growth Percent” value (A498) was −5.88% and the “Growth Percent” value (KM12) was −24.28%. The “Growth Percent” value (SK-MEL-28) was −64.73%, the “Growth Percent” value (SK-OV-3) was −45.67% and the “Growth Percent” value (786-0) was −43.08%. The “Growth Percent” value (SF-539) was −68.05%, the “Growth Percent” value (HS 578T) was −34.00% and the “Growth Percent” value (NCI-H23) was −39.72%. For the same compound, the “Growth Percent” value (CCRF-CEM) was −45.52%, the “Growth Percent” value (HL-60(TB)) was 4.50% and the “Growth Percent” value (HCC-2998) was −32.41%. For the same compound, the “Growth Percent” value (ACHN) was −26.45%, the “Growth Percent” value (OVCAR-8) was −48.90% and the “Growth Percent” value (OVCAR-3) was −10.46%. The “Growth Percent” value (HOP-92) was −33.16%, the “Growth Percent” value (TK-10) was −60.33% and the “Growth Percent” value (MALME-3M) was −60.74%. For the same compound, the “Growth Percent” value (UACC-62) was −64.22%, the “Growth Percent” value (NCI-H460) was −45.47% and the “Growth Percent” value (UO-31) was −52.51%. The “Growth Percent” value (MCF7) was −44.27%, the “Growth Percent” value (SNB-19) was −66.56% and the “Growth Percent” value (LOX IMVI) was −60.40%. For the same compound, the “Growth Percent” value (MDA-MB-435) was −28.31%, the “Growth Percent” value (SW-620) was −25.31% and the “Growth Percent” value (M14) was −28.70%. The “Growth Percent” value (SR) was 2.63%, the “Growth Percent” value (A549/ATCC) was −57.98% and the “Growth Percent” value (NCI-H522) was −43.60%. For the same compound, the “Growth Percent” value (K-562) was −34.68%, the “Growth Percent” value (MDA-MB-231/ATCC) was −98.22% and the “Growth Percent” value (MDA-MB-468) was −55.21%. For the same compound, the “Growth Percent” value (OVCAR-4) was −37.10%, the “Growth Percent” value (RPMI-8226) was −15.39% and the “Growth Percent” value (NCI/ADR-RES) was −60.60%. The “Growth Percent” value (NCI-H226) was −1.42%, the “Growth Percent” value (HCT-116) was −16.64% and the “Growth Percent” value (HT29) was −40.97%. The “Growth Percent” value (SN12C) was −82.86%, the “Growth Percent” value (COLO 205) was −40.80% and the “Growth Percent” value (HOP-62) was −49.53%. The “Growth Percent” value (SK-MEL-5) was 3.14%, the “Growth Percent” value (BT-549) was −26.02% and the “Growth Percent” value (CAKI-1) was −70.80%. For the same compound, the “Growth Percent” value (DU-145) was −82.24%, the “Growth Percent” value (RXF 393) was −41.21% and the “Growth Percent” value (SF-268) was −38.18%. The “Growth Percent” value (SNB-75) was −64.78%, the “Growth Percent” value (NCI-H322M) was −76.83% and the “Growth Percent” value (PC-3) was −14.45%. The “Growth Percent” value (MOLT-4) was −33.70%, the “Growth Percent” value (OVCAR-5) was −3.67% and the “Growth Percent” value (T-47D) was −20.87%. For the same compound, the “Growth Percent” value (HCT-15) was 7.08%.
